Patent US9593305B2, “Differentiation of pluripotent stem cells” (Janssen Biotech, Inc., priority 2008, dated 2017)

Tests used:
[1] = tested on: H1 human embryonic stem cells; assay: Analog screening with GDF-8 and growth factor/agonist pool (Example 8, Tables 7 and 8); assay type: cell-based; design: Cell Number, % of positive control / Sox17 Expression, % of positive control: tested at 2.5 µM
Protocol: Briefly, clusters of H1 human embryonic stem cells were grown on reduced growth factor […]™ (Invitrogen; Cat #356231)-coated tissue culture plastic. Cells were passaged using collagenase (Invitrogen; Cat #17104-019) treatment and gentle scraping, washed to remove residual enzyme, and plated with even dispersal at a ratio of 1:1 (surface area) on reduced growth factor […]™-coated 96-well black plates (Packard ViewPlates; PerkinElmer; Cat #6005182) using volumes of 100 μl/well. Cells were allowed to attach as clusters and then recover log phase growth over a 1 to 3 day period, feeding daily with MEF conditioned medium supplemented with 8 ng/ml bFGF (R&D Systems; Cat #233-FB). Plates were maintained at 37° C., 5% CO2 in a humidified box throughout the duration of assay. Growth factors purchased from R&D Systems were EGF (Cat #236-EG), FGF4 (Cat #235-F4), PDGF-A (Cat #221-AA), PDGF-D (Cat #1159-SB), PDGF-A/B (Cat #222-AB). […] Screening was conducted using a library of compounds that were made available as 5 mM stocks in 96-well plate format, solubilized in 100% DMSO (Sigma; Cat #D2650) and stored at −80° C. The compounds were further diluted to an intermediate concentration of 0.2 mM in 50 mM HEPES (Invitrogen; Cat #15630-080), 20% DMSO and stored at 4° C. Test conditions were performed in single wells, feeding on alternate days over a four-day assay period. Primary screening assays were initiated by aspirating culture medium from each well followed by three washes in PBS (Invitrogen; Cat #14190) to remove residual growth factors and serum. On the first day of assay, test volumes of 200 μl per well were added back containing DMEM:F12 base medium (Invitrogen; Cat #11330-032) supplemented with 0.5% FCS (HyClone; […] Cat #1324-WN) plus 2.5 μM compound. All remaining growth factors were tested at a final assay concentration of 50 ng/ml (EGF, FGF4, PDGF-A, PDGF-A/B, VEGF) with the exception of GDF-8 tested at 25 ng/ml. […] Cat #120-14). […] All remaining growth factors were tested at a final assay concentration of 50 ng/ml (EGF, FGF4, PDGF-A, PDGF-A/B, VEGF) with the exception of GDF-8 tested at 25 ng/ml. […] Cat #120-14). Negative control samples contained DMEM:F12 base medium supplemented with 2% FCS. […] At the conclusion of four-days of culture, assay plates were washed twice with PBS (Invitrogen; Cat #14190), fixed with 4% paraformaldehyde (Alexis Biochemical; Cat #ALX-350-011) at room temperature for 20 minutes, then washed three times with PBS and permeabilized with 0.5% Triton X-100 (Sigma; Cat #T8760-2) for 20 minutes at room temperature. Cells were washed again three times with PBS and blocked with 4% chicken serum (Invitrogen; Cat #16110082) in PBS for 30 minutes at room temperature. Primary antibody (goat anti-human SOX17; R&D Systems; Cat #AF1924) was diluted 1:100 in 4% chicken serum and added to each well for one hour at room temperature. Alexa Fluor 488 conjugated secondary antibody (chicken anti-goat IgG; Molecular Probes; Cat #AZ1467) was diluted 1:200 in PBS and added to each sample well after washing three times with PBS. To counterstain nuclei, 4 μg/ml Hoechst 33342 (Invitrogen; Cat #H3570) was added for ten minutes at room temperature. Plates were washed once with PBS and left in 100 μl/well PBS for imaging. Imaging was performed using an IN Cell Analyzer 1000 (GE Healthcare) utilizing the 51008bs dichroic for cells stained with Hoechst 33342 and Alexa Fluor 488. Exposure times were optimized from positive control wells and from untreated negative control wells stained with secondary antibody alone. Images from 15 fields per well were acquired to compensate for any cell loss during the bioassay and subsequent staining procedures. […] Segmentation for the nuclei was determined based on gray-scale levels (baseline range 100-300) and nuclear size. Averages and standard deviations were calculated for each replicate data set. […]

[2] = tested on: H1 human embryonic stem cells; assay: Secondary assay: panel of compounds with growth factor combinations and muscimol, no activin A (Example 6, Table 5); assay type: cell-based
Protocol: Clusters of H1 human embryonic stem cells were grown on reduced growth factor […]™ (Invitrogen; Cat #356231)-coated tissue culture plastic. Cells were passaged using collagenase (Invitrogen; Cat #17104-019) treatment and gentle scraping, washed to remove residual enzyme, and plated with even dispersal at a ratio of 1:1 (surface area) on reduced growth factor […]™-coated 96-well black plates (Packard ViewPlates; PerkinElmer; Cat #6005182) using volumes of 100 μl/well. Cells were allowed to attach as clusters and then recover log phase growth over a 1 to 3 day period, feeding daily with MEF-conditioned medium supplemented with 8 ng/ml bFGF (R&D Systems; Cat #233-FB). Plates were maintained at 37° C., 5% CO2 in a humidified box throughout the duration of the assay. Stocks of growth factors purchased from R&D Systems were EGF (Cat #236-EG), FGF4 (Cat #235-F4), PDGF-A (Cat #221-AA), PDGF-D (Cat #1159-SB), PDGF-A/B (Cat #222-AB), and VEGF (Cat #293-VE). […] All growth factors were solubilized in PBS with 0.1% BSA (Sigma; Cat #A7888) and stored frozen at −80° C. […] Cat #D2650) and stored frozen at −80° C. Compounds were available as 5 mM stocks in 96-well plate format, solubilized in 100% DMSO and stored at −80° C. Compounds were further diluted to an intermediate concentration of 0.2 mM in 50 mM HEPES (Invitrogen; Cat #15630-080), 20% DMSO and stored at 4° C. All growth factors and inhibitors were prepared in a deep well, 96-well polypropylene plate, diluted to 5× intermediate stocks in DMEM:F12 base medium at the beginning of assay and stored at 4° C. A secondary screening assay was conducted, testing in triplicate and feeding on alternate days over the four-day assay timeframe. Assays were initiated by aspirating culture medium from each well followed by three washes in PBS to remove residual growth factors and serum. Test volumes of 80 μl per well were added back containing DMEM:F12 base medium (Invitrogen; Cat #11330-032) supplemented with 0.625% FCS (HyClone; […] All remaining growth factors were tested at a final assay concentration of 50 ng/ml (EGF, FGF4, PDGF-A, PDGF-A/B, VEGF). […] At the conclusion of four-days of culture, assay plates were washed twice with PBS, fixed with 4% paraformaldehyde (Alexis Biochemical; Cat #ALX-350-011) at room temperature for 20 minutes, then washed three times with PBS and permeabilized with 0.5% Triton X-100 (Sigma; Cat #T8760-2) for 20 minutes at room temperature. Cells were washed again three times with PBS and blocked with 4% chicken serum (Invitrogen; Cat #16110082) in PBS for 30 minutes at room temperature. Primary antibody (goat anti-human SOX17; R&D Systems; cat #AF1924) was diluted 1:100 in 4% chicken serum and added to each well for one hour at room temperature. Alexa Fluor 488 conjugated secondary antibody (chicken anti-goat IgG; Molecular Probes; Cat #AZ1467) was diluted 1:200 in PBS and added to each sample well after washing three times with PBS. To counterstain nuclei, 4 μg/ml Hoechst 33342 (Invitrogen; Cat #H3570) was added for ten minutes at room temperature. Plates were washed once with PBS and left in 100 μl/well PBS for imaging. Imaging was performed using an IN Cell Analyzer 1000 (GE Healthcare) utilizing the 51008bs dichroic for cells stained with Hoechst 33342 and Alexa Fluor 488. Exposure times were optimized from positive control wells and from untreated negative control wells stained with secondary antibody alone. Images from 15 fields per well were acquired to compensate for any cell loss during the bioassay and subsequent staining procedures. […] Segmentation for the nuclei was determined based on grayscale levels (baseline range 100-300) and nuclear size. Averages and standard deviations were calculated for each replicate data set. Total SOX17 protein expression was reported as total intensity or integrated intensity, defined as total fluorescence of the cell multiplied by the area of the cell. […]

[3] = EGF, FGF, PDGF-A, VEGF, PDGF-D, muscimol, GDF8
[4] = Plate 2, compound + EGF, FGF, PDGF-A, VEGF, PDGF-D, muscimol, GDF8
[5] = Plate 2, compound + EGF, FGF, PDGF-A, VEGF, PDGF-D, muscimol, GDF8, positive control Activin A/Wnt3a
[6] = Table 8: hits with greater than 25% activity of the positive control, with GDF-8 and growth factors/agonists
[7] = Plate 1, compound + EGF, FGF, PDGF-A, VEGF, PDGF-D, muscimol, GDF8
[8] = Plate 1, compound + EGF, FGF, PDGF-A, VEGF, PDGF-D, muscimol, GDF8, positive control Activin A/Wnt3a

Compound | Cell Number, Average Total Cell Number [1, 4] | Sox17 Expression, Average Total Intensity [1, 4] | Cell Number, % of positive control [1, 5] | Sox17 Expression, % of positive control [1, 5] | Cell Number, % of positive control [1, 6] | Sox17 Expression, % of positive control [1, 6] | Sox17 Expression, Average Total Intensity [1, 6] | other results
CCN1CC(=O)NCCCc2cccc(c2)-c2ncnc(n2)Nc2cc(Cl)cc(c2)C1 [Compound 16, 10-Chloro-14-ethyl-3,5,7,14,17,27-hexaazatetracyclo[19.3.1.1˜2,6˜1˜8,12˜]heptacosa-1(25), 2(27), 3,5,8(26), 9,11,21,23-nonaen-16-one] | 9064 | 1.48E+08 | 57.3 % of positive control | 51.8 % of positive control | – | – | – | Cell Number, % of positive control [1, 3]: 62.0%; Cell Number, Average Total Cell Number [1, 3]: 8303; Sox17 Expression, % of positive control [1, 3]: 36.7%; Sox17 Expression, Average Total Intensity [1, 3]: 9.20E+07
9-Methyl-2,3,4,5,7,8,9,10-octahydro-16H-17,21-(azeno)-11,15-(metheno)pyrido[3,2-g][1,3,5,9,13,17]hexaazacyclotricosin-6(1H)-one [Compound 39] | – | – | – | – | – | – | – | SOX17 expression, % of positive control response ([2]; with EGF+FGF4+PDGF-A+VEGF, no activin A): 31 % of positive control response; SOX17 expression, % of positive control response ([2]; with EGF+FGF4+PDGF-AB, no activin A): 68 % of positive control response; SOX17 expression, % of positive control response ([2]; with EGF+FGF4, no activin A): 77 % of positive control response
O=C1NCCCc2cncc(c2)-c2ncnc(n2)Nc2cc(Cl)cc(c2)CN2CCCC1C2 (stereo not shown) [Compound 38, 5-Chloro-1,8,10,12,16,22,30-heptaazapentacyclo[22.2.2.1˜3,7˜0.1˜9,13˜0.1˜14,18˜]hentriaconta-3(31), 4,6,9(30), 10,12,14(29), 15,17-nonaen-23-one] | 9650 | 2.46E+08 | 61.0 % of positive control | 86.2 % of positive control | 61.0 % of positive control | 86.2 % of positive control | 2.46E+08 | –
O=C1NCCCc2cncc(c2)-c2ncnc(n2)Nc2cc(Cl)cc(c2)CN2CCC[C@@H]12 [Compound 36, (18S)-10-Chloro-3,5,7,14,20,26,30-heptaazapentacyclo[22.3.1.1˜2,6˜0.1˜8,12˜0.0˜14,18˜]triaconta-1(28), 2(30), 3,5,8(29), 9,11,24,26-nonaen-19-one] | – | – | – | – | 59.5 % of positive control | 37.8 % of positive control | 9.47E+07 | Cell Number, Average Total Cell Number [1, 7]: 7964; Sox17 Expression, Average Total Intensity [1, 7]: 9.47E+07; Cell Number, % of positive control [1, 8]: 59.5 % of positive control; Sox17 Expression, % of positive control [1, 8]: 37.8 % of positive control
